For the experiment, the target named is Neuronal acetylcholine receptor subunit alpha-7 (Rattus norvegicus, UniProt Q05941). Description: Binding Assay: Rat brain tissue (hippocampus or whole brain) is homogenized in homogenization buffer (10% w/v). [0.32 M sucrose, 1 mM EDTA; 0.1 mM phenylmethylsulfonyl fluoride (PMSF), 0.01% (w/v) NaN3, pH 7.4, 4 C.] at 600 rpm in a glass homogenizer. The homogenate is centrifuged (1000xg, 4 C., 10 min) and the supernatant is removed. The pellet is resuspended (20% w/v) and the suspension is centrifuged (1000xg, 4 C., 10 mM). The two supernatants are combined and centrifuged (15 000xg, 4 C., 30 min). The pellet obtained in this way is referred to as the P2 fraction.The P2 pellet is washed twice with binding buffer (50 mM Tris-HCl, 1 mM MgCl2, 120 mM NaCl, 5 mM KCl, 2 mM CaCl2, pH 7.4), and centrifuged (15 000xg, 4 C., 30 min).The P2 membranes are resuspended in binding buffer and incubated in a volume of 250 ul (amount of membrane protein 0.1-0.5 mg) in the presence of 1-5 nM [3H]methyllycaconitine, 0.1% (w/v) BSA (bovine serum albumin) and various concentrations of the test substance. Format: tissue-based.

The term Ki denotes a dissociation constant, usually derived from enzyme kinetics or from competition with a known ligand.

Neuronal acetylcholine receptor subunit alpha-7, sequence (Q05941 whole entry): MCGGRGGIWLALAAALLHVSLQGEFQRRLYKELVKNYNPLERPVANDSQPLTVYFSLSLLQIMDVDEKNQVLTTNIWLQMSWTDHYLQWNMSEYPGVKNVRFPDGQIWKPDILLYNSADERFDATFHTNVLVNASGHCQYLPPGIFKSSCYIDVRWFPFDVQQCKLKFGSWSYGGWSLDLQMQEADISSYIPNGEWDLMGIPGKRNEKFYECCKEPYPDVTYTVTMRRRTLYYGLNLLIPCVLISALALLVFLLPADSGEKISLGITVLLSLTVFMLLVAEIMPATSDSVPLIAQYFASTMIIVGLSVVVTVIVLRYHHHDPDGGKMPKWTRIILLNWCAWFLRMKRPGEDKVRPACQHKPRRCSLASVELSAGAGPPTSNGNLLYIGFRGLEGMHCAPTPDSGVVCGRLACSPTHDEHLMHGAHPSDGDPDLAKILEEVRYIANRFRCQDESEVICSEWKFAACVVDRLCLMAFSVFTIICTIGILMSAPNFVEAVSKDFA

On to `O=C(CC1CN2CCC1CC2)Nc1cc2ccc(Br)cc2s1` (stereo unspecified), for which the inhibition constant Ki was found to be 200 nM.

The values above are taken from ChEMBL document CHEMBL3638468, “Amides of acetic and propionic acids” (2015).
